Results: US20100029620A1, “SUBSTITUTED TRIAZOLINE, TETRAZOLONE AND IMIDAZOLONE DERIVATIVES FOR USE AS A MEDICINE” (JANSSEN PHARMACEUTICA N.V., priority 2004, published 2010)

Assays:
[1] = target: T1, human adrenergic-α2A receptor (Homo sapiens, UniProt P08913); experiment: Radioligand binding experiment for α2A-adrenoceptor ([3H]-raulwolscine competition, CHO cell membranes); settings: [3H]raulwolscine 1 nM, membranes of CHO cells transfected with human α2A receptor; read-out: pIC50 α2A (converted)
T1 construct: expressed in transfected cells; membrane preparation
T1 sequence (P08913 1-465): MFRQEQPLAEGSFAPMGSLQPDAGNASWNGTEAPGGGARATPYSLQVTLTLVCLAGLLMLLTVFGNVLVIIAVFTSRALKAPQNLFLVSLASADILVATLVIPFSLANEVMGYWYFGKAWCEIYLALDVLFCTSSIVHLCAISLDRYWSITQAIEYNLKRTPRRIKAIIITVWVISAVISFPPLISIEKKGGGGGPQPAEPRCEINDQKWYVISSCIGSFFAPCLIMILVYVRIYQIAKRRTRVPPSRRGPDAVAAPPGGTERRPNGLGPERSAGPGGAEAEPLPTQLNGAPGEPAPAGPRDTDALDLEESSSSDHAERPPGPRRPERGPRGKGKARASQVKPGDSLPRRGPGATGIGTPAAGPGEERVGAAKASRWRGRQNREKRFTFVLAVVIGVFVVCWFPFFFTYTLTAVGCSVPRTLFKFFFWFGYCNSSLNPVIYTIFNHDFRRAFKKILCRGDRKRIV
In short: (§1)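 CHO cell membranes stably expressing human α2A, α2B or α2C receptor were incubated with 1 nM [3H]-raulwolscine ± test compound, 60 min at 25° C in glycylglycine 25 mM, pH 8.0, then filtered and counted. Nonspecific binding: 1 μM oxymetazoline (α2A, α2B) or 1 μM spiroxatrine (α2C). pIC50 from nonlinear regression of % total binding.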

[2] = target: T2, human adrenergic-α2C receptor (Homo sapiens, UniProt P18825); experiment: Radioligand binding experiment for α2C-adrenoceptor ([3H]-raulwolscine competition, CHO cell membranes); settings: [3H]raulwolscine 1 nM, membranes of CHO cells transfected with human α2C receptor; read-out: pIC50 α2C (converted)
T2 construct: expressed in transfected cells; membrane preparation
T2 sequence (P18825 1-462): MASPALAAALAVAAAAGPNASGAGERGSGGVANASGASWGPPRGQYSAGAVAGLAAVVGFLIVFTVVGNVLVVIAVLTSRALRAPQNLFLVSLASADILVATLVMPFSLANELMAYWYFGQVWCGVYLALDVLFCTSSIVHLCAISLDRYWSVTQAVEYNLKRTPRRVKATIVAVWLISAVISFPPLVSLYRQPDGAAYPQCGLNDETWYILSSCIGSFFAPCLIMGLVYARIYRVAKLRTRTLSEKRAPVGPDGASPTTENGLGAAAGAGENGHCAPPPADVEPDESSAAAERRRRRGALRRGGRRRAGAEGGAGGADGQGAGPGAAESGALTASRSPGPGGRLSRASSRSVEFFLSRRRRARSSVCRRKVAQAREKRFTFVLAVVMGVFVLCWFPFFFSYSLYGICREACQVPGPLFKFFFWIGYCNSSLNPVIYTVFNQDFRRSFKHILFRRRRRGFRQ
In short: as §1

[3] = target: T3, human adrenergic-α2B receptor (Homo sapiens, UniProt P18089); experiment: Radioligand binding experiment for α2B-adrenoceptor ([3H]-raulwolscine competition, CHO cell membranes); settings: [3H]raulwolscine 1 nM, membranes of CHO cells transfected with human α2B receptor; read-out: pIC50 α2B (converted)
T3 construct: expressed in transfected cells; membrane preparation
T3 sequence (P18089 1-450): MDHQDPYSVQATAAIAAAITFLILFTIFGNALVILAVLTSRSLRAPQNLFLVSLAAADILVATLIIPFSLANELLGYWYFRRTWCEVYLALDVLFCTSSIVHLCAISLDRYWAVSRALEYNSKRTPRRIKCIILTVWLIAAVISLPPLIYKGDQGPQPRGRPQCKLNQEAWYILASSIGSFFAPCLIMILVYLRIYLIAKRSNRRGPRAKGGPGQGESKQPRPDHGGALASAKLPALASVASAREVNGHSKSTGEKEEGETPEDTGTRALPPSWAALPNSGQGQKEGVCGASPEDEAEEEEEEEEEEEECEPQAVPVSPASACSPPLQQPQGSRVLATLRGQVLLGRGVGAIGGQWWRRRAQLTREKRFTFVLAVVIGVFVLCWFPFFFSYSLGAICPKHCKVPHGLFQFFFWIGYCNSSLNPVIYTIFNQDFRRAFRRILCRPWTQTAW
In short: as §1

Row | SMILES | IC50 [1] [nM] | IC50 [2] [nM] | IC50 [3] [nM]
1 | O=c1n(-c2ccc(CNCc3ccccn3)cc2)cnn1CCNCCOc1ccccc1 [compound 96] | 39.8 | 3.16 | 200
2 | O=c1n(-c2ccc3c(c2)CCNC3)cnn1CCNCCOc1ccccc1 [compound 97] | 50.1 | 2 | 251
3 | O=c1n(-c2ccc3c(c2)CCN(CC2CCCCC2)C3)cnn1CCNCCOc1ccccc1 [compound 98] | 501 | 20 | 251
4 | O=c1n(-c2ccc3c(c2)CCN(Cc2ccc(F)cc2)C3)cnn1CCNCCOc1ccccc1 [compound 99] | 251 | 10 | 200
5 | CC(=O)N1CCc2cc(-n3cnn(CCNCCOc4ccccc4)c3=O)ccc2C1 [compound 100] | 631 | 10 | 398
6 | CS(=O)(=O)N1CCc2cc(-n3cnn(CCNCCOc4ccccc4)c3=O)ccc2C1 [compound 101] | 631 | 7.94 | 251
7 | O=c1n(-c2ccc3c(c2)CCN(CCN2CCCC2)C3)cnn1CCNCCOc1ccccc1 [compound 102] | 79.4 | 3.16 | 251
8 | CC(C)N1CCc2cc(-n3cnn(CCNCCOc4ccccc4)c3=O)ccc2C1 [compound 103] | 501 | 25.1 | 794
9 | O=c1n(CC2CCN(CCOc3ccccc3)CC2)nnn1-c1ccc(CN2CCOCC2)cc1 [compound 104] | 63.1 | 5.01 | 79.4
10 | O=c1n(CCNCCOc2ccccc2)nnn1-c1ccc(CN2CCC(O)CC2)cc1 [compound 107] | 501 | 20 | 398
11 | C/C(=C\c1ccccc1)CN1CCC(n2ncn(-c3ccc(CN4C(=O)c5ccccc5C4=O)cc3)c2=O)CC1 [compound 109] | 31.6 | 2 | 39.8
